According to US20030165854A1, “Marker genes responding to treatment with toxins” (priority 2000, published 2003):
Where two headings read alike, the source gives them in different places.

Key:
P450 3A2 = experiment: Gene expression (fold change) of known genes in toxin-treated rat liver, cDNA library transcript imaging; assay type: in vivo; conditions: clofibrate-treated rat liver, vs untreated liver
[1] = system: rat liver cDNAs SEQ ID NOs: 1-61; assay type: in vivo, Han/Wistar rat; conditions: Strain HW
[2] = system: rat liver cDNAs SEQ ID NOs: 62-202; experiment: Abundance of cDNA clones in toxin-treated rat liver cDNA libraries (transcript imaging), Sprague-Dawley; assay type: in vivo; conditions: Strain SD
Method: Columns 1 and 2 show the SEQ ID NO and Clone ID of the rat cDNA clone, respectively.
Abundance of a clone was determined by counting the number of clones present in a master cluster.
Abundance of a particular cDNA in the library profile was determined by summing the total number of copies of the clones present in the master cluster in that library.

P450 4A = conditions: clofibrate-treated rat liver, vs untreated liver
P450 LA-omega 4A3 = experiment: Gene expression (fold change) of known genes in toxin-treated rat liver, cDNA library transcript imaging; conditions: clofibrate-treated rat liver, vs untreated liver

## CCOC(=O)C(C)(C)Oc1ccc(Cl)cc1 [clofibrate]
P450 3A2; 12 hours
  Gene expression (fold change) P450 3A2: 0.14 fold change
P450 3A2; 24 hours
  Gene expression (fold change) P450 3A2: 1.2 fold change
P450 3A2; 3 days
  Gene expression (fold change) P450 3A2: 0.63 fold change
P450 3A2; 7 days
  Gene expression (fold change) P450 3A2: 0.50 fold change
P450 3A2; 28 days
  Gene expression (fold change) P450 3A2: 0.45 fold change
[1]
  Maximum Abundance, SEQ ID NO 9, Clone ID 700308908: 6
  Maximum Abundance, SEQ ID NO 11, Clone ID 700131403: 4
[1]; Sex M
  Maximum Abundance, SEQ ID NO 10, Clone ID 700139239: 4
[2]
  Maximum Abundance, SEQ ID NO 110, Clone ID 700192259: 5
  Maximum Abundance, SEQ ID NO 111, Clone ID 700269330: 4
  Maximum Abundance, SEQ ID NO 112, Clone ID 701317696: 5
  Maximum Abundance, SEQ ID NO 163, Clone ID 700025278: 4
  Maximum Abundance, SEQ ID NO 164, Clone ID 700122008: 6
  Maximum Abundance, SEQ ID NO 165, Clone ID 700136662: 3
  Maximum Abundance, SEQ ID NO 166, Clone ID 700144043: 4
  Maximum Abundance, SEQ ID NO 167, Clone ID 700177423: 3
  Maximum Abundance, SEQ ID NO 168, Clone ID 700247621: 4
  Maximum Abundance, SEQ ID NO 169, Clone ID 700251379: 3
  Maximum Abundance, SEQ ID NO 170, Clone ID 700272988: 5
  Maximum Abundance, SEQ ID NO 171, Clone ID 700306859: 3
  Maximum Abundance, SEQ ID NO 172, Clone ID 700307013: 3
  Maximum Abundance, SEQ ID NO 173, Clone ID 700323707: 4
  Maximum Abundance, SEQ ID NO 174, Clone ID 700513589: 4
  Maximum Abundance, SEQ ID NO 175, Clone ID 700538641: 3
  Maximum Abundance, SEQ ID NO 176, Clone ID 700592657: 3
  Maximum Abundance, SEQ ID NO 177, Clone ID 701190918: 3
  Maximum Abundance, SEQ ID NO 178, Clone ID 701313456: 3
  Maximum Abundance, SEQ ID NO 179, Clone ID 701397319: 3
  Maximum Abundance, SEQ ID NO 180, Clone ID 701429135: 6
  Maximum Abundance, SEQ ID NO 181, Clone ID 701429654: 3
  Maximum Abundance, SEQ ID NO 182, Clone ID 701458841: 3
  Maximum Abundance, SEQ ID NO 183, Clone ID 701470083: 3
  Maximum Abundance, SEQ ID NO 184, Clone ID 701562608: 3
  Maximum Abundance, SEQ ID NO 185, Clone ID 701884534: 5
  Maximum Abundance, SEQ ID NO 186, Clone ID 700068662: 6
  Maximum Abundance, SEQ ID NO 187, Clone ID 700933309: 5
  Maximum Abundance, SEQ ID NO 201, Clone ID 700062503: 3
[2]; Sex F
  Maximum Abundance, SEQ ID NO 113, Clone ID 700230724: 4
  Maximum Abundance, SEQ ID NO 114, Clone ID 700307025: 4
  Maximum Abundance, SEQ ID NO 115, Clone ID 700361295: 3
  Maximum Abundance, SEQ ID NO 116, Clone ID 700420930: 3
  Maximum Abundance, SEQ ID NO 117, Clone ID 700526706: 3
  Maximum Abundance, SEQ ID NO 118, Clone ID 700635732: 3
  Maximum Abundance, SEQ ID NO 119, Clone ID 700824178: 3
  Maximum Abundance, SEQ ID NO 120, Clone ID 701396706: 4
  Maximum Abundance, SEQ ID NO 121, Clone ID 701475987: 3
  Maximum Abundance, SEQ ID NO 122, Clone ID 701621131: 3
  Maximum Abundance, SEQ ID NO 123, Clone ID 701879551: 3
  Maximum Abundance, SEQ ID NO 124, Clone ID 701883446: 3
  Maximum Abundance, SEQ ID NO 125, Clone ID 701883859: 3
  Maximum Abundance, SEQ ID NO 188, Clone ID 700024288: 2
  Maximum Abundance, SEQ ID NO 189, Clone ID 700064545: 3
  Maximum Abundance, SEQ ID NO 190, Clone ID 700066933: 2
  Maximum Abundance, SEQ ID NO 191, Clone ID 700146747: 3
  Maximum Abundance, SEQ ID NO 192, Clone ID 700589657: 3
  Maximum Abundance, SEQ ID NO 193, Clone ID 700858043: 1
[2]; Sex M
  Maximum Abundance, SEQ ID NO 109, Clone ID 700250903: 11
  Maximum Abundance, SEQ ID NO 126, Clone ID 700122019: 4
  Maximum Abundance, SEQ ID NO 127, Clone ID 700276321: 4
  Maximum Abundance, SEQ ID NO 128, Clone ID 700323126: 3
  Maximum Abundance, SEQ ID NO 129, Clone ID 700324604: 3
  Maximum Abundance, SEQ ID NO 130, Clone ID 700363120: 3
  Maximum Abundance, SEQ ID NO 131, Clone ID 700364810: 3
  Maximum Abundance, SEQ ID NO 132, Clone ID 700510701: 4
  Maximum Abundance, SEQ ID NO 133, Clone ID 700810877: 5
  Maximum Abundance, SEQ ID NO 134, Clone ID 700928985: 6
  Maximum Abundance, SEQ ID NO 135, Clone ID 700931410: 4
  Maximum Abundance, SEQ ID NO 136, Clone ID 701093657: 4
  Maximum Abundance, SEQ ID NO 137, Clone ID 701259518: 3
  Maximum Abundance, SEQ ID NO 138, Clone ID 701264516: 4
  Maximum Abundance, SEQ ID NO 139, Clone ID 701341715: 4
  Maximum Abundance, SEQ ID NO 140, Clone ID 701434939: 4
  Maximum Abundance, SEQ ID NO 141, Clone ID 701460429: 3
  Maximum Abundance, SEQ ID NO 142, Clone ID 701463285: 4
  Maximum Abundance, SEQ ID NO 143, Clone ID 701605992: 4
  Maximum Abundance, SEQ ID NO 144, Clone ID 701737185: 3
  Maximum Abundance, SEQ ID NO 145, Clone ID 701737221: 4
  Maximum Abundance, SEQ ID NO 146, Clone ID 701920170: 3
  Maximum Abundance, SEQ ID NO 147, Clone ID 701922204: 3
  Maximum Abundance, SEQ ID NO 148, Clone ID 701922375: 4
  Maximum Abundance, SEQ ID NO 149, Clone ID 701922439: 4
  Maximum Abundance, SEQ ID NO 150, Clone ID 701922513: 4
  Maximum Abundance, SEQ ID NO 151, Clone ID 701922576: 4
  Maximum Abundance, SEQ ID NO 152, Clone ID 701922583: 3
  Maximum Abundance, SEQ ID NO 153, Clone ID 701922711: 3
  Maximum Abundance, SEQ ID NO 154, Clone ID 701922744: 4
  Maximum Abundance, SEQ ID NO 155, Clone ID 701922971: 3
  Maximum Abundance, SEQ ID NO 156, Clone ID 701923019: 5
  Maximum Abundance, SEQ ID NO 157, Clone ID 701923022: 3
  Maximum Abundance, SEQ ID NO 158, Clone ID 701923218: 4
  Maximum Abundance, SEQ ID NO 159, Clone ID 701923240: 4
  Maximum Abundance, SEQ ID NO 160, Clone ID 701923241: 3
  Maximum Abundance, SEQ ID NO 161, Clone ID 701923330: 3
  Maximum Abundance, SEQ ID NO 162, Clone ID 701925484: 4
  Maximum Abundance, SEQ ID NO 194, Clone ID 700060595: 3
  Maximum Abundance, SEQ ID NO 195, Clone ID 700061212: 3
  Maximum Abundance, SEQ ID NO 196, Clone ID 700062747: 2
  Maximum Abundance, SEQ ID NO 197, Clone ID 700124248: 3
  Maximum Abundance, SEQ ID NO 198, Clone ID 700252787: 3
  Maximum Abundance, SEQ ID NO 199, Clone ID 700272719: 3
  Maximum Abundance, SEQ ID NO 200, Clone ID 700282789: 3
P450 4A; 12 hours
  Gene expression (fold change) P450 4A: 7.0 fold change
P450 4A; 24 hours
  Gene expression (fold change) P450 4A: 16.6 fold change
P450 4A; 3 days
  Gene expression (fold change) P450 4A: 1.4 fold change
P450 4A; 7 days
  Gene expression (fold change) P450 4A: 0.5 fold change
P450 4A; 28 days
  Gene expression (fold change) P450 4A: 1.3 fold change
P450 LA-omega 4A3; 12 hours
  Gene expression (fold change) P450 LA-omega 4A3: 14.8 fold change
P450 LA-omega 4A3; 24 hours
  Gene expression (fold change) P450 LA-omega 4A3: 26.6 fold change
P450 LA-omega 4A3; 3 days
  Gene expression (fold change) P450 LA-omega 4A3: 1.1 fold change
P450 LA-omega 4A3; 7 days
  Gene expression (fold change) P450 LA-omega 4A3: 0.5 fold change
P450 LA-omega 4A3; 28 days
  Gene expression (fold change) P450 LA-omega 4A3: 0.47 fold change
